Data from the METLIN SMRT retention time set (Domingo-Almenara et al. 2019).

Assay: gradient 5% acetonitrile 3 min, to 50% in 2 min, to 85% in 15 min, held 3 min, 100 µL/min
Conditions: column: Zorbax Extend-C18 2.1 x 50 mm; eluents: water / acetonitrile, 0.1% formic acid
Procedure, shortened: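 Values are retention times taken from adduct peaks that software picked and an analyst inspected. The pure standards were run as mixtures of ~100 molecules on HPLC linked to a quadrupole time-of-flight mass spectrometer, in positive and negative ionization mode. A Zorbax Extend-C18 column (2.1 × 50 mm, 1.8 μm) was used at 100 μL/min with water and acetonitrile, each including 0.1% formic acid.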

Row | RP-LC retention time | SMILES
1 | 811 s | COc1ccccc1NC(=O)C1CCc2nc(N3CCCCC3)ncc2C1 (centres undefined)
2 | 1090 s | CCOC(=O)c1ccccc1NC(=O)N(Cc1cc(=O)[nH]c2ccccc12)CC(C)C
3 | 702 s | Cn1nc(C(=O)Nc2ccccc2)c2c1CCN(C(=O)NCC1CCCO1)C2 (centres undefined)
4 | 1250 s | Cc1nc(-c2ccc(-c3noc(-c4cncc(Br)c4)n3)cc2)cs1
5 | 731 s | CCc1ccc(C(=O)N2CCN(c3cc(-c4ccc(C)cc4)ncn3)CC2)cc1
6 | 574 s | COC(=O)N1CCN(CCNC(=O)Cc2cccc3ccccc23)CC1
7 | 591 s | CCN(CC)CCNC(=O)CCc1cc2ccc(C)cc2[nH]c1=O
8 | 934 s | C[C@H](NC(=O)/C(C#N)=C/c1cccc(Br)n1)c1ccccc1
9 | 730 s | O=C(Cc1cccs1)Nc1onc2c1CCCC2
10 | 832 s | O=C(Cn1c(=O)c2cc(C3CC3)nn2c2ncccc21)N1CCCc2ccccc21
11 | 949 s | COc1ccc(-c2noc(Cn3nc(-c4ccc(C)cc4)ccc3=O)n2)c(OC)c1
12 | 750 s | Cc1cc(C(=O)NCCCc2ccccc2)c2c(=O)n(C)c(=O)n(C)c2n1
13 | 748 s | CSc1ccc(-c2nc3cnccn3c2Nc2cccc(C(=O)NCC3CCCO3)c2)cc1 (centres undefined)
14 | 871 s | CCC(C)(C)NC(=O)C1CCCN(S(=O)(=O)c2c[nH]c(C(=O)N3CCCCCC3)c2)C1 (centres undefined)
15 | 648 s | O=C(NC1CCCC1)N1CCC2(CC1)N(c1ccccc1)C(=O)CS2=O (centres undefined)
16 | 970 s | CC(C)c1ccc(NC(=O)Cc2csc3nc(-c4ccccc4)cn23)cc1
17 | 756 s | Cc1ccc(C2Cn3cnc(C(=O)N4CCC(C(=O)NCc5cccs5)CC4)c3CO2)cc1 (centres undefined)
18 | 577 s | C#CCOCC(O)CN1CCN(c2cc(Cl)ccc2C)CC1 (centres undefined)
19 | 986 s | O=C(CSc1ccccn1)Nc1nc(-c2ccccc2)cs1
20 | 672 s | COc1cccc(NC(=O)Nc2cccc(-c3ccc(N4CCOCC4)nn3)c2)c1
21 | 706 s | CCOc1cc(=O)n2c(c1C(=O)Nc1ccc(OC)cc1OC)CCCC2
22 | 1320 s | O=c1n(Cc2cccc(Cl)c2)nc2c(S(=O)(=O)N3CCOCC3)cccn12

Row | RP-LC retention time | SMILES
23 | 736 s | Cc1noc(C2CN(C(=O)CCCc3ccccc3)CC23CCOCC3)n1 (centres undefined)
24 | 586 s | O=C1CCCN1CCCN(CC(=O)N1CCNCC1)C(=O)c1cccc(Cl)c1
25 | 961 s | O=C(Nc1cnc(-c2ccc(F)cc2)nc1)c1ccccc1
26 | 649 s | Clc1cc(Cl)cc(-c2ccc(CNCc3ccncc3)o2)c1
27 | 680 s | O=C(NCc1ccc(F)cc1F)c1ccc2ncnc(N3CCCCC3)c2c1
28 | 1100 s | CN(Cc1ccccc1)C(=O)C1CCN(S(=O)(=O)c2ccc(-c3noc(C4CC4)n3)cc2)CC1
29 | 758 s | CCOC(=O)C1CCN(c2cc3c(cc2NC(=O)C2CC2)n(C)c(=O)c(=O)n3C)CC1
30 | 566 s | Cc1ccc(CN2CCC(c3nc(-c4cnccn4)n[nH]3)CC2)o1
31 | 912 s | Cc1ccc(NC(=O)C2C(=O)NC3(C)CC2c2ccccc2O3)c(C)c1 (centres undefined)
32 | 588 s | COc1ccc(CN(C)Cc2cc(=O)c3cc(C)ccc3[nH]2)cc1OC
33 | 548 s | CN1CCCC1c1nc(C2CN(C(=O)c3cccn3C)C2)no1 (centres undefined)
34 | 724 s | O=C(CCCc1ccccc1)Nc1ccc2c(c1)CCC(=O)N2
35 | 720 s | Fc1cc(F)cc(CN2CCCN(c3ncccc3-c3nc(C4CC4)no3)CC2)c1
36 | 1090 s | COc1ccc(S(=O)(=O)N2CCc3nc(-c4ccccc4)ncc3C2)cc1Cl
37 | 973 s | CCN1C(=O)CCc2cc(NS(=O)(=O)c3cc(F)ccc3F)ccc21
38 | 897 s | Cc1ccc(-c2noc(CN3N=NC4C(=O)N(c5cccc(F)c5)C(=O)C43)n2)cc1C (centres undefined)
39 | 549 s | CNC(=O)[C@@H]1CN(C(=O)c2cnc(C)cn2)C[C@H]1c1n[nH]c(C)n1
40 | 772 s | CC(C)(C)c1ccc(C(=O)Nc2ccc3nnc(C4CCC4)n3c2)cc1
41 | 805 s | Cc1nn(C)c(C)c1S(=O)(=O)N1CCc2c(c(-c3nnc(-c4ccc(F)cc4)o3)nn2C)C1
42 | 864 s | O=C(NC1CCCCC1)C1CCCN(C(=O)c2cccc(Cl)c2)C1 (centres undefined)
43 | 749 s | O=C(NCc1ccccc1)c1cn(Cc2ccc(NC(=O)C3CCCCC3)cc2)cn1
44 | 726 s | Cn1nnc2c(N3CCN(S(=O)(=O)c4cccs4)CC3)ncnc21

Row | RP-LC retention time | SMILES
45 | 1230 s | CCN1C(=O)COc2ccc(-c3noc(/C=C/c4ccc(C)cc4)n3)cc21
46 | 737 s | COc1cccc(CNC(=O)C2CCCN(C(=O)C3Sc4ccccc4NC3=O)C2)c1 (centres undefined)
47 | 702 s | CC(C)NC(=O)Cn1c2ccccc2n2c(=O)cc(-c3ccc(F)cc3)nc12
48 | 651 s | CN(C)C(=O)COC(=O)Cc1ccc(OC(=O)c2ccc(N=C(N)N)cc2)cc1
49 | 1010 s | COc1ccc(-c2nnc(Cc3nc(-c4ccc(C)cc4)no3)o2)cc1
50 | 828 s | CCn1c(=O)c(N2CCCC(C(=O)NCCc3ccco3)C2)nc2cccnc21 (centres undefined)
51 | 1300 s | CC1CCCN(c2nn(CC(=O)Nc3cccc(C(C)C)c3)c(=O)c3ccccc23)C1 (centres undefined)
52 | 657 s | Cc1ccc(C(=O)N2CCc3[nH]nc(C(=O)N(C)C)c3C2)cc1C
53 | 678 s | CCOC(=O)c1c(S(=O)(=O)N2CCC(C(=O)Nc3ccccn3)CC2)c(C)n(C)c1C
54 | 823 s | CC(C)CN1C(=O)CSc2cnn(CC(=O)N3CCN(c4ccccc4)CC3)c(=O)c21
55 | 675 s | Fc1ccccc1CN1CCCN(c2ncccc2-c2nc(C3CC3)no2)CC1
56 | 598 s | COCCCNC(=O)N1CC(c2nc(C)no2)C2(CCOCC2)C1 (centres undefined)
57 | 594 s | O=C(NCc1ccc2c(c1)OCO2)C1Cn2cccc2C(=O)N1Cc1cccnc1 (centres undefined)
58 | 561 s | O=C(NCc1ccncc1)C1CCCN(c2nnc3c(Cl)cccn23)C1 (centres undefined)
59 | 925 s | COc1cccc(-c2noc(C3CCCN3C(=O)Nc3cccc(C)c3C)n2)c1 (centres undefined)
60 | 649 s | COc1cc(OC)c2c(C)c(CC(=O)N3CCC(C(N)=O)CC3)c(=O)oc2c1
61 | 560 s | Fc1cccc(CN2CCC(N3CC4(CCCCC4)C3c3ccncc3)CC2)c1 (centres undefined)
62 | 690 s | CCCC(=O)Nc1ccc2c(c1)CN(C(=O)Cc1cccs1)C(C(=O)N(C)C)C2 (centres undefined)
63 | 824 s | CCn1c(=O)c(C(=O)NCc2ccccc2F)nc2cccnc21
64 | 1120 s | CCOc1ccccc1-c1nn2c(CSc3ccccc3)nnc2s1
65 | 1070 s | O=C(Nc1ccccc1)N1CCN(c2nc3ccccc3nc2C(F)(F)F)CC1
66 | 711 s | COc1ccc(-c2nnc(COc3ccc(NC(=O)c4cccnc4)cc3)o2)cc1

Row | RP-LC retention time | SMILES
67 | 600 s | CCCN1CCC(c2cccc(S(C)(=O)=O)c2)CC1
68 | 620 s | Cn1c(=O)c2nc(SCCC(=O)Nc3ccc(N4CCOCC4)cc3)n(C)c2n(C)c1=O
69 | 637 s | Cc1cc2n(n1)CCC(=O)N2CCCC(=O)NCc1cccs1
70 | 607 s | COCCCNC(=O)C1c2cc(OC)c(OC)cc2C(=O)N(C)C1c1ccc(SC)cc1 (centres undefined)
71 | 636 s | CCOC(=O)c1ccc(N2C(=O)CC(NCCCN3CCN(CC)CC3)C2=O)cc1 (centres undefined)
72 | 617 s | CCN1CCCC1CNC(=O)c1nc(-c2ccc3c(c2)OCC(=O)N3C)no1 (centres undefined)
73 | 868 s | CCCN1C(=O)c2c(C(=O)NCc3ccccc3Cl)ncn2CC1(C)C(=O)NC1CCCC1 (centres undefined)
74 | 574 s | CSc1ccccc1CN1CCC(CNC(=O)C(=O)NCC(F)(F)F)CC1
75 | 620 s | Cc1nn(CC(=O)N2CCN(C(C)C)CC2)c(=O)c2nc(-c3ccccc3)sc12
76 | 778 s | COCCN1CCC2(CC1)CN(Cc1cc(Cl)ccc1F)Cc1ccccc1O2
77 | 888 s | CCOc1ccc(OCC)c(NC(=O)C2CCN(S(=O)(=O)c3cn(C(C)C)cn3)CC2)c1
78 | 948 s | O=C(NCCc1csc(-c2ccc(F)cc2)n1)Nc1ccccc1C(F)(F)F
79 | 841 s | Cc1ccc(NS(=O)(=O)c2cc3c(=O)n(C)ncn3c2)cc1F
80 | 1040 s | CC1CCN(S(=O)(=O)c2ccc3c(c2)CCCC(=O)N3CC(=O)N(C)C2CCCCC2)CC1
81 | 962 s | Cc1cccc(N2CCN(c3ccc4cc(S(=O)(=O)N5CCCC5)ccc4n3)CC2C)c1 (centres undefined)
82 | 655 s | CC(NC(=O)c1cc(F)cc(F)c1)C(=O)Nc1nc2ccccc2[nH]1 (centres undefined)
83 | 1280 s | Cc1c(-c2noc(C(=O)N3CCc4ccccc4C3)n2)oc2c(C)cccc12
84 | 1040 s | CC(C)OC(=O)Cn1nc2c(-c3nc(-c4ccc(Cl)cc4)no3)cccn2c1=O
85 | 837 s | O=C(c1ccc(F)c(F)c1)N1CCN(c2cc(-c3ccc(F)cc3)[nH]n2)CC1
86 | 1040 s | O=c1ccc(-c2ccccc2)nn1CCc1nc(-c2ccc(Cl)cc2)no1
87 | 653 s | CCOC(=O)c1cccc(Nc2c(C(=O)N3CCCC(C)C3)cnc3nc(C)ccc23)c1 (centres undefined)

Row | SMILES | RP-LC retention time
88 | O=C(CCc1c(-c2ccc(F)cc2)nc2ccccn12)N1CCC2(CC1)OCCO2 | 615 s
89 | COc1cccc(NC(=O)N2CCC3(C2)C(=O)Nc2ccc(OC)cc23)c1 (centres undefined) | 701 s
